# Reference: US4997926A, “Deaminase-stable anti-retroviral 2-halo-2',3'-dideoxy” (Scripps Clinic and Research Foundation, priority 1987, dated 1991)
# Key:
# [1] = tested on: HIV (strain LAV) in MT-2 cells; assay: HIV-induced syncytia formation and cytopathic effect in MT-2 T lymphoblasts; assay type: cell-based
# Text: The anti-HIV activities of the 2-halo-2',3'-dideoxyadenosine derivatives were first assayed in human MT-2 T lymphoblasts, as this system readily permitted a differentiation between anti-retroviral and anti-proliferativeeffects Exposure of the MT-2 T cell line to cell-free HIV led to the formation of syncytia within 4-5 days, and to a parallel decline in cell viability.
# The MT-2 human lstoid cell line, which carries the human T cell leukemia virus type I (HTLV-1) genome, was used to assess the cytopathic effects of HIV, and the protective effects of the various nucleosides. […] The formation of syncytia, with resultant cell death, depends upon the expression on the cell-surface of the HIV envelope glycoproteins gp160, gp120, and gp4l, by cells that bear the differentiation antigen CD4 (T4) [Lipson et al., (1986) Nature, 323:725-728].
# In the reported studies, the formation of syncytia in the MT-2 cell line (provided by J. Riggs and M. Aschen, State Department of Public Health, Berkelye, CA) was a sensitive and reproducible system to follow both the course of HIV infection and the potential cytotoxic effects of the added nucleosides. HIV (strain LAV) maintained in CEM cell culture was obtained from F. Barre-Sinoussi, J. C. Chermann and L. Montagnier (Institute Pasteur, Paris).
# Cell-free virus was prepared by mixing LAV-infected CEM cells with two liters of 2×10^6 cells/ml of uninfected CEM cells at a ratio of 1:20 and incubating at 37 degrees C. for six days at which time, more than 80 percent of the cells expressed the p24 (gag) antigen using mouse monoclonal antibody M33, obtained from F. Vernoese di Marzo and M. Sarngadharan (Litton Bionetics, Rockville, Md.) using an enzyme immunofiltration staining method [Cleveland et al. (1987) J. Clin. Microbiol., 25:416-420]. The cells were centrifuged at 750×g for 10 minutes. The clarified supernatant was then titered by terminal dilution assay in 96 well microtiter plates containing 6×10^4 MT-2 cells per well suspended in a final volume of 200 ul RPMI 1640 medium containing 10 percent fetal bovine serum, 2 mM glutamine and […].
# When HIV was added to this microtiter culture system at a multiplicity of infection of 0.1 TCID50 /cell, multinucleated giant cells appeared within 48 hours, and the majority of cells were fused in syncytia structures by day 4. The appearance of giant cells correlated with detectable antigens and RNA of HIV.
# For measurement of antiviral activity, different concentrations of the assayed compounds were added to duplicate wells at the time of infection, and the cultures were incubated at 37 degrees C. After 4 and 5 days, the numbers of syncytia per culture were enumerated microscopically.
# The results presented herein were confirmed in five separate experiments. Controls containing uninfected and infected cells with and without anti-retroviral nucleosides were included.
# The results were expressed in semi-quantitative units that take into account the growth pattern of MT-2, and the ability of the HIV to cause both syncytia formation and cell death. In this unit system, 1 corresponds to 1-3 syncytia per well and no change in cell count compared to control cultures lacking virus; 2 corresponds to 3-10 syncytia per well and up to 20 percent cell death; 3 corresponds to 10-30 syncytia per well and a 20-70 percent drop in cell viability; 4 corresponds to more than 30 syncytia well and at least a 70 percent fall in the viable cell count.
# wild type CEM T cells = assay type: in vitro ADME, human
# Experimental: Extracts of wild type CEM cells that had been incubated with 3 uM [8-^3 H]-2-chloro-2',3'-dideoxyadenosine for 4 hours were fractionated by ion exchange high performance liquid chromatography (HPLC). Detected radioactive peaks corresponded to the free deoxynucleoside and to the 5'-mono-, di- and tri-phosphates, respectively. The total intracellular 2-chloro-2',3'-dideoxynucleotide content was 30 pmols/10^8 cells. The identity of the peaks was confirmed by enzymatic dephosphorylation, and reverse phase HPLC in the presence of authentic 2-chloro-2',3'-dideoxyadenosine.
# (§1) ^1 Human CEM T cells, or variants deficient in either deoxycytidine
# (§2) kinase, or deoxycytidine kinase plus adenosine kinase, were incubated at
# (§3) density of 5 × 10^7 cells/ml in medium containing 3 uM [8^3
# (§4) H2-chloro-2',3dideoxyadenosine. After 4 hours, the nucleotides in the
# (§5) methanolsoluble extracts were determined after separation by HPLC, as
# (§6) described in the Materials and Methods.
# (§7) The human T lymphoblastoid cell line, CCRF-CEM, and mutants deficient in either deoxycytidine kinase (clone AraC-8D), or deoxycytidine kinase plus adenosine kinase (clone AraC-8DM10-5) were obtained and propagated as described previously [Foley et al., (1965) Cancer, 18:552-529 and Hershfield et al., (1982) J. Biol. Chem., 257:6380-6386]. For metabolic studies, the cells were cultured in RPMI 1640 medium supplemented with 2 mM L-glutamine and 10 percent fetal bovine serum at a density of 2×10^7 cells/ml in the presence of radiolabelled dideoxynucleosides, as indicated earlier. Some cultures were pre-incubatedfor 30 minutes either with 5 uM 2'-deoxycoformycin or 50 uM coformycin. After 4 hours of incubation the cells were harvested by centrifugation.
# (§8) The cell pellets were washed with Hank's balanced salt solution at 4 degrees C., and extracted with 1 ml 60 percent methanol/water at -20 degrees C. for 10 minutes. Initial studies included 2',3'-dideoxyadenosine5'-triphosphate as an internal recovery marker. The nucleotides were fractionated by high performance liquid chromatography on an Whatman Partisil-10 SAX column, applying a gradient of zero to 100 percent buffer B in buffer A. Buffer A was 7 mM potassium phosphate pH 3.4. Buffer B was 0.5 M potassium phosphate, pH 3.4, one M KCl. The flow rate was 1.5 ml/minute, 1 minute fractions were collected. Buffer A was used alone for the first ten fractions after which elution with Buffer B began and was continued through fraction thirty, after which the eluting buffer was completely Buffer B. The nucleoside was eluted by about fraction six. The monophosphate eluted between about fractions fifteen and eighteen, the diphosphate between about fractions twenty-seven and thirty-two, and the triphosphate eluted between about fractions fifty-one and about sixty-five.
# [2] = tested on: deoxycytidine kinase deficient CEM T cells (clone AraC-8D); assay type: in vitro ADME, human
# Experimental: as §1, §2, §3, §4, §5, §6, §7, §8
# [3] = Deoxycytidine kinase deficient CEM, 3 uM, 4 hours
SMILES,cytopathic effect of HIV / virus-induced cell killing [1],"2',3'-dideoxyadenosine uptake (wild type CEM T cells)","2',3'-dideoxyadenosine uptake [2]",HIV-induced syncytia formation ([1]; 10 uM),"intracellular dideoxynucleotide content after 4 hours (wild type CEM T cells; CEM 2 × 10^7 cells/ml, 37 degrees C., 3 uM 2-Cl-ddA or 2 uM ddA) [pmols/10^8 cells]","Nucleotide Formed, Diphosphate (wild type CEM T cells; Wild Type CEM, 3 uM, 4 hours) [pmols/10^8 cells/4 hrs]","Nucleotide Formed, Triphosphate (wild type CEM T cells; Wild Type CEM, 3 uM, 4 hours) [pmols/10^8 cells/4 hrs]","total intracellular 2-chloro-2',3'-dideoxynucleotide content (wild type CEM T cells; Wild Type CEM, 3 uM, 4 hours) [pmols/10^8 cells]","Nucleotide Formed, Monophosphate (wild type CEM T cells; Wild Type CEM, 3 uM, 4 hours, 5 × 10^7 cells/ml) [pmols/10^8 cells/4 hrs]","Nucleotide Formed, Diphosphate [2, 3] [pmols/10^8 cells/4 hrs]","Nucleotide Formed, Monophosphate [2, 3] [pmols/10^8 cells/4 hrs]","Nucleotide Formed, Triphosphate [2, 3] [pmols/10^8 cells/4 hrs]","accumulated phosphates relative to wild type CEM cells ([2]; deoxycytidine kinase deficient CEM variant, same culture conditions)"
"Nc1ncnc2c1ncn2[C@H]1CC[C@@H](CO)O1 [2',3'-dideoxyadenosine, reference compound]",inhibit the cytopathic effect of HIV,20-30 pmols/10^8 cells,20-30 pmols/10^8 cells,,,,,,,,,,
"Nc1nc(Cl)nc2c1ncn2[C@H]1CC[C@@H](CO)O1 [2-chloro-2',3'-dideoxyadenosine]",,,,blocked syncytia formation,~30,2.8,24.3,30,3.0,0.8,1.7,3.4,about 20%
